Test results taken from patent US20250177533A1, “PHOTODYNAMIC THERAPY AND DIAGNOSIS” (RMW CHO Group Limited, priority 2021, published 2025).
Read-outs that look alike come from different tables or passages of the source.

Experiments:
E coli DH5α cells = assay: Photosensitizer uptake into bacterial cells (absorbance spectra of lysates); format: cell-based; conditions: 50 μM, incubated overnight
Procedure: E coli DH5α cells were inoculated into LB media and incubated overnight (shaking at 37° C.) in the presence of 50 μM compound 1 or chlorin e4 disodium. Untreated cells acted as the control. The following day cells were harvested by centrifugation (5000 g, 10 mins, room temperature) and lysed by addition of PBS+1% SDS (w/v)+1% PVP-17 (w/v). Insoluble material was pelleted by centrifugation at 21,000 g (10 mins, bench top centrifuge) and the supernatant transferred to a fresh tube. A 100 μl aliquot was added to clear 96-well microtitre plates and absorbance spectra measured between 600-700 nm (Cytation 3 multimode plate reader). The optical density (OD) was plotted against wavelength in each case to determine uptake of photosensitizer into cells.

[1] = system: Human ovarian cancer cell line SKOV3; assay: Inherent cytotoxicity (dark toxicity) in SKOV3 cells (AlamarBlue viability); conditions: SKOV3, 24 h incubation, no light activation
[2] = system: Human ovarian cancer cell line SKOV3; assay: Phototoxicity in SKOV3 cells (660 nm laser or LED, AlamarBlue viability); format: cell-based; conditions: SKOV3, 24 h uptake, 660 nm laser 50 mW/cm^2 for 5 mins (15 J/cm^2), viability 24 h later, read-out: Phototoxicity μM (IC90)
Text: All data are shown as mean±SD (where appropriate).
Media was then replaced with fresh media containing AlamarBlue, and % viable cells remaining assessed as above. […] All measurements were made in quadruplicate.

[3] = system: SKOV3 ovarian cancer cells; assay: Photosensitizer uptake into SKOV3 cancer cells (absorbance of cell lysates at 405 nm); conditions: SKOV3, 5 μM
Procedure: (§1) SKOV3 cells were seeded in 96-well black wall plates (Greiner #655090) at a cell density of 5000 cells in 100 μl culture medium per well. […] Cells were incubated for up to 18 hours. At time periods of 10 min, 20 min, 30 min, 60 min, 2 hrs, 4 hrs and 18 hrs, media was removed and the cells lysed in 100 μl of lysis buffer (PBS+1% SDS+1% PVP+Benzonase Nuclease 500 units/mL). Each sample was snap-frozen on dry ice until use.
(§2) Eight point standard curves using compound 1 or chlorin e4 disodium were constructed in the range 0-10 μM using serial dilutions in lysis buffer. Cell lysates (100 μl) were thawed, centrifuged at room temperature (21,000 g, 10 mins) and the supernatants transferred to fresh tubes. 100 μl of each supernatant was added neat to 96-well microplates and absorbance measured at 405 nm using a Cytation 3 multimode plate reader. All wells were measured against blank wells containing buffer alone, and a background value measured using untreated cells was subtracted from all samples. The concentration of each chlorin species was determined against the appropriate standard curve in each case.
(§3) Chlorin e4 disodium (which enters cells via a passive diffusion process) was included as a comparator, and untreated cells were used as a control. Cells were harvested at time periods from 10 mins to 18 hours post addition of photosensitizers, cells were lysed and the supernatants measured for uptake of photosensitizers against an appropriate standard curve.

[4] = system: Human ovarian cancer cell line SKOV3; conditions: 24 h
Procedure: Serial dilutions were prepared in cell culture media (Dulbecco's Modified Eagle Medium/Nutrient Mixture F-12 (DMEM/F-12)) supplemented with 10% v/v Fetal Bovine Serum, 100 U/mL penicillin, 100 μg/mL streptomycin and the same excipient solution at a constant 1:55 dilution.
Human ovarian cancer cell line SKOV3 (ATCC #HTB-77) was maintained in Dulbecco's Modified Eagle Medium/Nutrient Mixture F-12 (DMEM/F-12), supplemented with 10% v/v Fetal Bovine Serum, 100 U/mL penicillin and 100 μg/mL streptomycin. Monolayer cultures were grown in a humidified incubator at 37° C. with 5% CO2. Once cells had reached ˜80% confluence, spent media was replaced with media containing photosensitizer at the required concentration and cells were incubated for the desired period of time to allow photosensitizer uptake.
Spectral absorbance and viability measurements were normalized in the range 0-100%, with a minimum of 0 and a maximum value determined from the dataset. Dose response was determined using a sigmoidal four-point non-linear regression with variable slope, and IC10 or IC90 calculated for each compound. All data are shown as mean±SD (where appropriate).
On reaching ˜60% confluence, media was aspirated and replaced with fresh media containing the relevant phyllochlorin analogue from 0-100 μM in DMSO.
Untreated cells were used as a control. […] All measurements were made in quadruplicate.
The phototoxicity and inherent cytotoxicity (i.e. “dark toxicity”) of phyllochlorin analogues were assessed as previously using SKOV3 ovarian cancer cells. For comparative purposes, phyllochlorin analogues were compared against chlorin e4 disodium and Talaporfin sodium, a clinically approved photosensitizer used in the photodynamic treatment of lung cancers.

[5] = Determination of solubility of phyllochlorin analogues (absorbance maxima as surrogate measure); format: physicochemical
Procedure: Absorbance maxima were used as a surrogate measure of solubility. The relevant phyllochlorin analogue was diluted to 50 μM in PBS (phosphate buffered saline) solutions containing decreasing amounts of DMSO from 100% to 0%.
Where required, polyvinylpyrrolidone (K30) was added to a final concentration of 1% w/v. Absorbance was measured using a Cytation 3 Multimode Plate Reader (Biotek) in spectral scanning mode, with spectra captured between 500-800 nm in 2 nm increments. Equivalent blank solutions were also measured and subtracted accordingly. Each spectrum was normalized to have a minimum signal of 0, and a maximum signal in pure DMSO solution (the most soluble state) of 100%.
The solubility of compound 1 was assessed in solutions containing DMSO as an organic solvent. Compound 1 (50 μM final concentration) was resuspended in 100% DMSO to fully dissolve compound 1, in the presence or absence of 1% PVP (w/v). With concentrations of compound 1 maintained at 50 μM the % DMSO was decreased in a stepwise manner from 100% to 0%. All solutions were mixed by vortexing, then centrifuged for 2 mins to pellet any insoluble material. A 150 μl aliquot was transferred to individual wells of a 96-well clear microplate, and absorbance spectra collected between 500-800 nm in 2 nm increments. Equivalent solutions containing decreasing % DMSO were used to control for background.

[6] = system: SKOV3 ovarian cancer cells; conditions: human, 5 μM
Procedure: as §1, §2, §3

| SMILES | detection in bacterial lysates (E coli DH5α cells) | Dark toxicity μM (IC10) [1] | IC90 [2] | detectability in cells [3] | time of reaching maximum accumulation [3] | Dark toxicity μM (IC10) [4] | IC90 ([2]; Homo sapiens, SK-OV-3, light or radiation study) | apparent solubility ([5]; 50 μM, DMSO concentrations below 40%) | solubility ([5]; 50 μM, concentrations above 70% DMSO) | solubility in aqueous solution ([5]; 50 μM, no DMSO, addition of PVP 1%) | absorbance maxima ([5]; in the presence of 1% PVP (w/v)) | observed in cells (time of incubation) [6] | rate of uptake [6] | time the rate of uptake was maintained after addition of photosensitizer [6] |
| --- | --- | --- | --- | --- | --- | --- | --- | --- | --- | --- | --- | --- | --- | --- |
| C=Cc1c(C)c2cc3nc(c(C)c4[nH]c(cc5nc(cc1[nH]2)C(C)=C5CC)c(C)c4C(=O)O)[C@@H](CCC(=O)O)[C@@H]3C [Chlorin e4 disodium, reference compound] | detected marginally above background | 40.23 µM | 21.3 µM | undetectable until after one hour of incubation | 18 h |  |  |  |  |  |  |  |  |  |
| CCC1=C(C)c2cc3[nH]c(cc4nc(c(C)c5cc(C)c(cc1n2)[nH]5)[C@@H](CCC(=O)OC)[C@@H]4C)c(C)c3C(C)OCCCS[C@@H]1O[C@H](CO)[C@@H](O)[C@H](O)[C@H]1O (stereo partly drawn) [Compound 1, methyl 3-((7S,8S)-18-ethyl-2,5,8,12,17-pentamethyl-13-(1-(3-(((2S,3R,4S,5S,6R)-3,4,5-trihydroxy-6-(hydroxymethyl)tetrahydro-2H-pyran-2-yl)thio)propoxy)ethyl)-7H,8H-porphyrin-7-yl) propanoate] | clearly detectible |  |  |  |  | 13.500 µM | 0.06 µM | ~45% | completely soluble | ~75 % of maximal | 650±2 nm | ≤ 10 min | substantially faster than that of chlorin e4 disodium | 2 to 4 h |
